Assay results as given in ChEMBL document CHEMBL4665624, “Synthesis of 5-(4-(1H-phenanthro[9,10-d]imidazol-2-yl)benzylidene)thiazolidine-2,4-dione as promising DNA and serum albumin-binding agents and evaluation of antitumor activity” (Eur J Med Chem, 2019).

Assays:
[1] = tested on: HL-60(TB); experiment: Antitumor activity against human HL-60(TB) cells assessed as cell growth inhibition at 10 uM incubated for 48 hrs by sulforhodamine B assay; type: functional; settings: read-out: GI
[2] = tested on: HCT-15; experiment: Antitumor activity against human HCT15 cells assessed as cell growth inhibition at 10 uM incubated for 48 hrs by sulforhodamine B assay; type: functional; settings: read-out: GI
[3] = tested on: SF-295; experiment: Antitumor activity against human SF295 cells assessed as cell growth inhibition at 10 uM incubated for 48 hrs by sulforhodamine B assay; type: functional; settings: read-out: GI
[4] = tested on: UO-31; experiment: Antitumor activity against human UO-31 cells assessed as cell growth inhibition at 10 uM incubated for 48 hrs by sulforhodamine B assay; type: functional; settings: read-out: GI
[5] = tested on: BT-549; experiment: Antitumor activity against human BT-549 cells assessed as cell growth inhibition at 10 uM incubated for 48 hrs by sulforhodamine B assay; type: functional; settings: read-out: GI
[6] = tested on: NCI-H226; experiment: Antitumor activity against human NCI-H226 assessed as cell growth inhibition at 10 uM incubated for 48 hrs by sulforhodamine B assay; type: functional; settings: read-out: GI
[7] = tested on: MCF7; experiment: Antitumor activity against human MCF7 cells assessed as cell growth inhibition at 10 uM incubated for 48 hrs by sulforhodamine B assay; type: functional; settings: read-out: GI
[8] = tested on: SK-MEL-28; experiment: Antitumor activity against human SK-MEL-28 cells assessed as cell growth inhibition at 10 uM incubated for 48 hrs by sulforhodamine B assay; type: functional; settings: read-out: GI
[9] = tested on: K562; experiment: Antitumor activity against human K562 cells assessed as cell growth inhibition at 10 uM incubated for 48 hrs by sulforhodamine B assay; type: functional; settings: read-out: GI
[10] = tested on: SK-OV-3; experiment: Antitumor activity against human SK-OV-3 cells assessed as cell growth inhibition at 10 uM incubated for 48 hrs by sulforhodamine B assay; type: functional; settings: read-out: GI
[11] = tested on: SR; experiment: Antitumor activity against human SR cells assessed as cell growth inhibition at 10 uM incubated for 48 hrs by sulforhodamine B assay; type: functional; settings: read-out: GI
[12] = tested on: RPMI-8226; experiment: Antitumor activity against human RPMI8226 cells assessed as cell growth inhibition at 10 uM incubated for 48 hrs by sulforhodamine B assay; type: functional; settings: read-out: GI
[13] = tested on: NCI-H522; experiment: Antitumor activity against human NCI-H522 cells assessed as cell growth inhibition at 10 uM incubated for 48 hrs by sulforhodamine B assay; type: functional; settings: read-out: GI
[14] = tested on: SF-268; experiment: Antitumor activity against human SF268 cells assessed as cell growth inhibition at 10 uM incubated for 48 hrs by sulforhodamine B assay; type: functional; settings: read-out: GI
[15] = tested on: NCI/ADR-RES; experiment: Antitumor activity against human NCI/ADR-RES cells assessed as cell growth inhibition at 10 uM incubated for 48 hrs by sulforhodamine B assay; type: functional; settings: read-out: GI
[16] = tested on: HCT-116; experiment: Antitumor activity against human HCT116 cells assessed as cell growth inhibition at 10 uM incubated for 48 hrs by sulforhodamine B assay; type: functional; settings: read-out: GI
[17] = tested on: UACC-62; experiment: Antitumor activity against human UACC-62 cells assessed as cell growth inhibition at 10 uM incubated for 48 hrs by sulforhodamine B assay; type: functional; settings: read-out: GI
[18] = tested on: SW-620; experiment: Antitumor activity against human SW620 cells assessed as cell growth inhibition at 10 uM incubated for 48 hrs by sulforhodamine B assay; settings: SW-620, 48 h, read-out: GI
[19] = tested on: NCI-H460; experiment: Antitumor activity against human NCI-H460 assessed as cell growth inhibition at 10 uM incubated for 48 hrs by sulforhodamine B assay; type: functional; settings: read-out: GI
[20] = tested on: MDA-MB-435; experiment: Antitumor activity against human MDA-MB-435 cells assessed as cell growth inhibition at 10 uM incubated for 48 hrs by sulforhodamine B assay; type: functional; settings: read-out: GI
[21] = tested on: M14; experiment: Antitumor activity against human M14 cells assessed as cell growth inhibition at 10 uM incubated for 48 hrs by sulforhodamine B assay; type: functional; settings: read-out: GI
[22] = tested on: Malme-3M; experiment: Antitumor activity against human MALME-3M cells assessed as cell growth inhibition at 10 uM incubated for 48 hrs by sulforhodamine B assay; type: functional; settings: read-out: GI
[23] = tested on: OVCAR-8; experiment: Antitumor activity against human OVCAR-8 cells assessed as cell growth inhibition at 10 uM incubated for 48 hrs by sulforhodamine B assay; type: functional; settings: read-out: GI
[24] = tested on: PC-3; experiment: Antitumor activity against human PC-3 cells assessed as cell growth inhibition at 10 uM incubated for 48 hrs by sulforhodamine B assay; type: functional; settings: read-out: GI
[25] = tested on: CCRF-CEM; experiment: Antitumor activity against human CCRF-CEM cells assessed as cell growth inhibition at 10 uM incubated for 48 hrs by sulforhodamine B assay; type: functional; settings: read-out: GI
[26] = tested on: SN12C; experiment: Antitumor activity against human SN12C cells assessed as cell growth inhibition at 10 uM incubated for 48 hrs by sulforhodamine B assay; type: functional; settings: read-out: GI
[27] = tested on: IGROV-1; experiment: Antitumor activity against human IGROV1 cells assessed as cell growth inhibition at 10 uM incubated for 48 hrs by sulforhodamine B assay; type: functional; settings: read-out: GI
[28] = tested on: HCC 2998; experiment: Antitumor activity against human HCC2998 cells assessed as cell growth inhibition at 10 uM incubated for 48 hrs by sulforhodamine B assay; type: functional; settings: read-out: GI
[29] = tested on: KM12; experiment: Antitumor activity against human KM12 cells assessed as cell growth inhibition at 10 uM incubated for 48 hrs by sulforhodamine B assay; type: functional; settings: read-out: GI
[30] = tested on: OVCAR-3; experiment: Antitumor activity against human OVCAR-3 cells assessed as cell growth inhibition at 10 uM incubated for 48 hrs by sulforhodamine B assay; type: functional; settings: read-out: GI
[31] = tested on: MDA-MB-231; experiment: Antitumor activity against human MDA-MB-231/ATCC cells assessed as cell growth inhibition at 10 uM incubated for 48 hrs by sulforhodamine B assay; type: functional; settings: read-out: GI
[32] = tested on: MDA-MB-468; experiment: Antitumor activity against human MDA-MB-468 cells assessed as cell growth inhibition at 10 uM incubated for 48 hrs by sulforhodamine B assay; type: functional; settings: read-out: GI
[33] = tested on: SNB-75; experiment: Antitumor activity against human SNB-75 cells assessed as cell growth inhibition at 10 uM incubated for 48 hrs by sulforhodamine B assay; type: functional; settings: read-out: GI
[34] = tested on: RXF 393; experiment: Antitumor activity against human RXF 393 cells assessed as cell growth inhibition at 10 uM incubated for 48 hrs by sulforhodamine B assay; type: functional; settings: read-out: GI
[35] = tested on: Hs-578T; experiment: Antitumor activity against human HS 578T cells assessed as cell growth inhibition at 10 uM incubated for 48 hrs by sulforhodamine B assay; type: functional; settings: read-out: GI
[36] = tested on: COLO 205; experiment: Antitumor activity against human COLO205 cells assessed as cell growth inhibition at 10 uM incubated for 48 hrs by sulforhodamine B assay; type: functional; settings: read-out: GI
[37] = tested on: U-251; experiment: Antitumor activity against human U251 cells assessed as cell growth inhibition at 10 uM incubated for 48 hrs by sulforhodamine B assay; type: functional; settings: read-out: GI
[38] = tested on: SNB-19; experiment: Antitumor activity against human SNB-19 cells assessed as cell growth inhibition at 10 uM incubated for 48 hrs by sulforhodamine B assay; type: functional; settings: read-out: GI
[39] = tested on: NCI-H23; experiment: Antitumor activity against human NCI-H23 cells assessed as cell growth inhibition at 10 uM incubated for 48 hrs by sulforhodamine B assay; type: functional; settings: read-out: GI
[40] = tested on: ACHN; experiment: Antitumor activity against human ACHN cells assessed as cell growth inhibition at 10 uM incubated for 48 hrs by sulforhodamine B assay; type: functional; settings: read-out: GI
[41] = tested on: EKVX; experiment: Antitumor activity against human EKVX cells assessed as cell growth inhibition at 10 uM incubated for 48 hrs by sulforhodamine B assay; type: functional; settings: read-out: GI
[42] = tested on: LOX IMVI; experiment: Antitumor activity against human LOX IMVI cells assessed as cell growth inhibition at 10 uM incubated for 48 hrs by sulforhodamine B assay; type: functional; settings: read-out: GI
[43] = tested on: HOP-92; experiment: Antitumor activity against human HOP92 cells assessed as cell growth inhibition at 10 uM incubated for 48 hrs by sulforhodamine B assay; type: functional; settings: read-out: GI
[44] = tested on: A498; experiment: Antitumor activity against human A498 cells assessed as cell growth inhibition at 10 uM incubated for 48 hrs by sulforhodamine B assay; type: functional; settings: read-out: GI
[45] = tested on: OVCAR-4; experiment: Antitumor activity against human OVCAR-4 cells assessed as cell growth inhibition at 10 uM incubated for 48 hrs by sulforhodamine B assay; type: functional; settings: read-out: GI
[46] = tested on: MOLT-4; experiment: Antitumor activity against human MOLT4 cells assessed as cell growth inhibition at 10 uM incubated for 48 hrs by sulforhodamine B assay; type: functional; settings: read-out: GI
[47] = tested on: HT-29; experiment: Antitumor activity against human HT-29 cells assessed as cell growth inhibition at 10 uM incubated for 48 hrs by sulforhodamine B assay; type: functional; settings: read-out: GI
[48] = tested on: 786-0; experiment: Antitumor activity against human 786-0 cells assessed as cell growth inhibition at 10 uM incubated for 48 hrs by sulforhodamine B assay; type: functional; settings: read-out: GI

## Oc1ccccc1-c1nc2c3ccccc3c3ccccc3c2o1
[1]
  inhibition of growth at 10 µM: 12%
[2]
  inhibition of growth at 10 µM: < 10%
[3]
  inhibition of growth at 10 µM: < 10%
[4]
  inhibition of growth at 10 µM: 39%
[5]
  inhibition of growth at 10 µM: < 10%
[6]
  inhibition of growth at 10 µM: 14.2%
[7]
  inhibition of growth at 10 µM: 37.6%
[8]
  inhibition of growth at 10 µM: < 10%
[9]
  inhibition of growth at 10 µM: 11.9%
[10]
  inhibition of growth at 10 µM: < 10%
[11]
  inhibition of growth at 10 µM: 26.3%
[12]
  inhibition of growth at 10 µM: 24.5%
[13]
  inhibition of growth at 10 µM: < 10%
[14]
  inhibition of growth at 10 µM: 10.2%
[15]
  inhibition of growth at 10 µM: < 10%
[16]
  inhibition of growth at 10 µM: 19.2%
[17]
  inhibition of growth at 10 µM: 11.6%
[18]
  inhibition of growth at 10 µM: 31.6%
[19]
  inhibition of growth at 10 µM: 30.4%
[20]
  inhibition of growth at 10 µM: < 10%
[21]
  inhibition of growth at 10 µM: < 10%
[22]
  inhibition of growth at 10 µM: < 10%
[23]
  inhibition of growth at 10 µM: 11%
[24]
  inhibition of growth at 10 µM: 22.2%
[25]
  inhibition of growth at 10 µM: 17.9%
[26]
  inhibition of growth at 10 µM: 17%
[27]
  inhibition of growth at 10 µM: 25.9%
[28]
  inhibition of growth at 10 µM: < 10%
[29]
  inhibition of growth at 10 µM: < 10%
[30]
  inhibition of growth at 10 µM: < 10%
[31]
  inhibition of growth at 10 µM: 18.3%
[32]
  inhibition of growth at 10 µM: 17%
[33]
  inhibition of growth at 10 µM: 10.3%
[34]
  inhibition of growth at 10 µM: < 10%
[35]
  inhibition of growth at 10 µM: 10.5%
[36]
  inhibition of growth at 10 µM: 14.3%
[37]
  inhibition of growth at 10 µM: 18%
[38]
  inhibition of growth at 10 µM: < 10%
[39]
  inhibition of growth at 10 µM: 14.5%
[40]
  inhibition of growth at 10 µM: < 10%
[41]
  inhibition of growth at 10 µM: 21.2%
[42]
  inhibition of growth at 10 µM: < 10%
[43]
  inhibition of growth at 10 µM: 16.2%
[44]
  inhibition of growth at 10 µM: < 10%
[45]
  inhibition of growth at 10 µM: 23.6%
[46]
  inhibition of growth at 10 µM: < 10%
[47]
  inhibition of growth at 10 µM: < 10%
[48]
  inhibition of growth at 10 µM: < 10%
